# Measurements reported in patent US20250171463A1 (BIOGEN MA INC., priority 2022, published 2025).
# Molecular target: T1, EBP (Homo sapiens, UniProt Q15125)
# T1 construct: HEK293T cells were utilized as the source of EBP enzyme; endogenous in cells; host or cells: HEK293T
# Assay: EBP Functional Assay (EBP immunoaffinity LC-MS assay)
# Assay type: biochemical
# Conditions: EBP enzyme from HEK293T cells; 30 min with inhibitor, then zymosterol-d5, 37° C., 4 h; percent conversion to dehydrolathosterol-d5 by LC-APCI MRM MS
# Outline: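 IC50 comes from a 4-parameter logistic fit of zymosterol-d5-to-product percent conversion, measured by LC-APCI MRM MS after sterol extraction. Compounds were preincubated 30 min with EBP from HEK293T cells before deuterated substrate was added for 4 h at 37° C; Tasin-1 served as reference.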
# T1 sequence (Q15125 whole entry): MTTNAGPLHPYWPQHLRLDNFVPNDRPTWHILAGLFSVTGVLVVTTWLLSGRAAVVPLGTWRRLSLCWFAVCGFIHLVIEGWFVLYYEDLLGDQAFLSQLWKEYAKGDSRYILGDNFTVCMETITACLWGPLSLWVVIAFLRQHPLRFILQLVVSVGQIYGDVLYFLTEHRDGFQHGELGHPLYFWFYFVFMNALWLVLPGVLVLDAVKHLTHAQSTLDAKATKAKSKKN
row,IC50 [nM],Structure (SMILES)
1,< 100,Cc1nc(C(F)(F)F)ccc1S(=O)(=O)N1CC2(CN(CCCOC3CCCC3)C2)C1 [Example 176]
2,250 to 4000,COC(=O)C(C)(C)CCN1CC2(C1)CN(S(=O)(=O)c1ccc(C(F)(F)F)nc1C)C2 [Example 177]
3,250 to 4000,COC(CN1CC2(C1)CN(S(=O)(=O)c1ccc(C(F)(F)F)nc1C)C2)C1CC1 (centres unmarked) [Example 178]
4,100 to 250,COCCCCCN1CC2(C1)CN(S(=O)(=O)c1ccc(C(F)(F)F)nc1C)C2 [Example 179]
5,100 to 250,COC(C)CCCN1CC2(C1)CN(S(=O)(=O)c1ccc(C(F)(F)F)nc1C)C2 (centres unmarked) [Example 180]
6,100 to 250,COCCC1(CN2CC3(C2)CN(S(=O)(=O)c2ccc(C(F)(F)F)nc2C)C3)CCC1 [Example 181]
7,< 100,CCSCCCN1CC2(C1)CN(S(=O)(=O)c1ccc(C(F)(F)F)nc1C)C2 [Example 183]
8,< 100,Cc1nc(C(F)(F)F)ccc1S(=O)(=O)N1CC2(CN(CCC3CC3)C2)C1 [Example 184]
9,< 100,Cc1nc(C(F)(F)F)ccc1S(=O)(=O)N1CC2(CN(CCOC(C)(C)C)C2)C1 [Example 185]
10,100 to 250,Cc1nc(C(F)(F)F)ccc1S(=O)(=O)N1CC2(CN(CC3CCOC(C)(C)C3)C2)C1 (centres unmarked) [Example 186]
11,250 to 4000,"Cc1nc(C(F)(F)F)ccc1S(=O)(=O)N1CC2(CN(CC3(O)CCOCC3)C2)C1 [Example 187, 4-((6-((2-methyl-6-(trifluoromethyl)pyridin-3-yl)sulfonyl)-2,6-diazaspiro[3.3]heptan-2-yl)methyl)tetrahydro-2H-pyran-4-ol]"
12,< 100,"Cc1nc(C(F)(F)F)ccc1S(=O)(=O)N1CC2(CN(CC3(F)CCOCC3)C2)C1 [Example 188, 2-((4-fluorotetrahydro-2H-pyran-4-yl)methyl)-6-((2-methyl-6-(trifluoromethyl)pyridin-3-yl)sulfonyl)-2,6-diazaspiro[3.3]heptane]"
13,< 100,"CC(C)c1cc(S(=O)(=O)N2CC3(CN(C4CCOCC4)C3)C2)n(C)n1 [Example 189, 2-((3-isopropyl-1-methyl-1H-pyrazol-5-yl)sulfonyl)-6-(tetrahydro-2H-pyran-4-yl)-2,6-diazaspiro[3.3]heptane]"
14,< 100,"O=S(=O)(c1ccc(C(F)(F)F)nc1C1CC1)N1CC2(CN(CC3CCOCC3)C2)C1 [Example 190, 2-((2-cyclopropyl-6-(trifluoromethyl)pyridin-3-yl)sulfonyl)-6-((tetrahydro-2H-pyran-4-yl)methyl)-2,6-diazaspiro[3.3]heptane]"
15,< 100,"Cc1nc(C2(C(F)(F)F)CC2)ccc1S(=O)(=O)N1CC2(CN(CC3CCOCC3)C2)C1 [Example 191, 2-((2-methyl-6-(1-(trifluoromethyl)cyclopropyl)pyridin-3-yl)sulfonyl)-6-((tetrahydro-2H-pyran-4-yl)methyl)-2,6-diazaspiro[3.3]heptane]"
16,< 100,"O=S(=O)(c1ccc(C(F)(F)F)nc1Cl)N1CC2(CN(C3CCOCC3)C2)C1 [Example 192, 2-((2-chloro-6-(trifluoromethyl)pyridin-3-yl)sulfonyl)-6-(tetrahydro-2H-pyran-4-yl)-2,6-diazaspiro[3.3]heptane]"
17,< 100,"O=S(=O)(c1ccc(C(F)(F)F)nc1C1CC1)N1CC2(CN(C3CCOCC3)C2)C1 [Example 193, 2-((2-cyclopropyl-6-(trifluoromethyl)pyridin-3-yl)sulfonyl)-6-(tetrahydro-2H-pyran-4-yl)-2,6-diazaspiro[3.3]heptane]"
18,< 100,"Cc1cc(C(F)(F)F)ccc1S(=O)(=O)N1CC2(CN(CC3CCOCC3)C2)C1 [Example 194, 2-((2-methyl-4-(trifluoromethyl)phenyl)sulfonyl)-6-((tetrahydro-2H-pyran-4-yl)methyl)-2,6-diazaspiro[3.3]heptane]"
19,< 100,"CC1(O)CCC(N2CC3(C2)CN(S(=O)(=O)c2ccc(C(F)(F)F)nc2C2CC2)C3)CC1 (centres unmarked) [Example 195, 4-(6-((2-cyclopropyl-6-(trifluoromethyl)pyridin-3-yl)sulfonyl)-2,6-diazaspiro[3.3]heptan-2-yl)-1-methylcyclohexan-1-ol]"

row,IC50 [nM],Structure (SMILES)
1,100 to 250,"CC1(O)CCC(N2CC3(C2)CN(S(=O)(=O)c2ccc(C(F)(F)F)nc2C2CC2)C3)CC1 (centres unmarked) [Example 196, 4-(6-((2-cyclopropyl-6-(trifluoromethyl)pyridin-3-yl)sulfonyl)-2,6-diazaspiro[3.3]heptan-2-yl)-1-methylcyclohexan-1-ol]"
2,250 to 4000,"O=S(=O)(c1cccnc1C(F)(F)F)N1CC2(CN(CC3CCOCC3)C2)C1 [Example 201, 2-((tetrahydro-2H-pyran-4-yl)methyl)-6-((2-(trifluoromethyl)pyridin-3-yl)sulfonyl)-2,6-diazaspiro[3.3]heptane]"
3,< 100,"Cn1nc(C(F)(F)F)cc1S(=O)(=O)N1CC2(CN(CC3CCOCC3)C2)C1 [Example 202, 2-((1-methyl-3-(trifluoromethyl)-1H-pyrazol-5-yl)sulfonyl)-6-((tetrahydro-2H-pyran-4-yl)methyl)-2,6-diazaspiro[3.3]heptane]"
4,< 100,"C=Cc1nc(C(F)(F)F)ccc1S(=O)(=O)N1CC2(CN(C3CCOCC3)C2)C1 [Example 203, 2-(tetrahydro-2H-pyran-4-yl)-6-((6-(trifluoromethyl)-2-vinylpyridin-3-yl)sulfonyl)-2,6-diazaspiro[3.3]heptane]"
5,< 100,"CCc1nc(C(F)(F)F)ccc1S(=O)(=O)N1CC2(CN(C3CCOCC3)C2)C1 [Example 204, 2-((2-ethyl-6-(trifluoromethyl)pyridin-3-yl)sulfonyl)-6-(tetrahydro-2H-pyran-4-yl)-2,6-diazaspiro[3.3]heptane]"
6,< 100,"CCc1nc(C(F)F)ccc1S(=O)(=O)N1CC2(CN(C3CCOCC3)C2)C1 [Example 205, 2-((6-(difluoromethyl)-2-ethylpyridin-3-yl)sulfonyl)-6-(tetrahydro-2H-pyran-4-yl)-2,6-diazaspiro[3.3]heptane]"
7,100 to 250,"CCc1nc(C(F)F)ccc1S(=O)(=O)N1CC2(CN(C3CC4(COC4)C3)C2)C1 [Example 206, 2-((6-(difluoromethyl)-2-ethylpyridin-3-yl)sulfonyl)-6-(2-oxaspiro[3.3]heptan-6-yl)-2,6-diazaspiro[3.3]heptane]"
8,250 to 4000,"CCc1nc(C(F)F)ccc1S(=O)(=O)N1CC2(C1)CN([C@H]1CC[C@](C)(O)CC1)C2 [Example 207, (1r,4r)-4-(6-((6-(difluoromethyl)-2-ethylpyridin-3-yl)sulfonyl)-2,6-diazaspiro[3.3]heptan-2-yl)-1-methylcyclohexan-1-ol]"
9,100 to 250,"CCc1nc(C(F)F)ccc1S(=O)(=O)N1CC2(CN(C3CCC(C)(O)CC3)C2)C1 (centres unmarked) [Example 208, (1s,4s)-4-(6-((6-(difluoromethyl)-2-ethylpyridin-3-yl)sulfonyl)-2,6-diazaspiro[3.3]heptan-2-yl)-1-methylcyclohexan-1-ol]"
10,100 to 250,"O=S(=O)(c1ccc(C(F)(F)F)nc1C1CC1)N1CC2(CN(CC3COC3)C2)C1 [Example 209, 2-((2-cyclopropyl-6-(trifluoromethyl)pyridin-3-yl)sulfonyl)-6-(oxetan-3-ylmethyl)-2,6-diazaspiro[3.3]heptane]"
11,100 to 250,"Cn1nc(C(C)(F)F)cc1S(=O)(=O)N1CC2(CN(CC3CCOCC3)C2)C1 [Example 210, 2-((3-(1,1-difluoroethyl)-1-methyl-1H-pyrazol-5-yl)sulfonyl)-6-((tetrahydro-2H-pyran-4-yl)methyl)-2,6-diazaspiro[3.3]heptane]"
12,100 to 250,"O=S(=O)(c1ccc(C(F)(F)F)cc1C(F)(F)F)N1CC2(CN(CC3CCOCC3)C2)C1 [Example 211, 2-((2,4-bis(trifluoromethyl)phenyl)sulfonyl)-6-((tetrahydro-2H-pyran-4-yl)methyl)-2,6-diazaspiro[3.3]heptane]"
13,100 to 250,"O=S(=O)(c1ccc(Cl)nc1C(F)(F)F)N1CC2(CN(C3CCOCC3)C2)C1 [Example 213, 2-((6-chloro-2-(trifluoromethyl)pyridin-3-yl)sulfonyl)-6-(tetrahydro-2H-pyran-4-yl)-2,6-diazaspiro[3.3]heptane]"
14,250 to 4000,"O=S(=O)(c1ccc(OC(F)(F)F)cc1F)N1CC2(CN(C3CCOCC3)C2)C1 [Example 214, 2-((2-fluoro-4-(trifluoromethoxy)phenyl)sulfonyl)-6-(tetrahydro-2H-pyran-4-yl)-2,6-diazaspiro[3.3]heptane]"
15,< 100,"Cc1cc(C(F)(F)F)ncc1S(=O)(=O)N1CC2(CN(CC3CCOCC3)C2)C1 [Example 217, 2-((4-methyl-6-(trifluoromethyl)pyridin-3-yl)sulfonyl)-6-((tetrahydro-2H-pyran-4-yl)methyl)-2,6-diazaspiro[3.3]heptane]"
16,100 to 250,"Cn1nc(C(F)(F)F)cc1S(=O)(=O)N1CC2(CN(CC3COC3)C2)C1 [Example 218, 2-((1-methyl-3-(trifluoromethyl)-1H-pyrazol-5-yl)sulfonyl)-6-(oxetan-3-ylmethyl)-2,6-diazaspiro[3.3]heptane]"
17,100 to 250,"Cn1nc(C2CC2)cc1S(=O)(=O)N1CC2(CN(CC3CCOCC3)C2)C1 [Example 219, 2-((3-cyclopropyl-1-methyl-1H-pyrazol-5-yl)sulfonyl)-6-((tetrahydro-2H-pyran-4-yl)methyl)-2,6-diazaspiro[3.3]heptane]"
18,250 to 4000,"O=S(=O)(c1ccc(OC(F)(F)F)cc1F)N1CC2(CN(CC3CCOCC3)C2)C1 [Example 220, 2-((2-fluoro-4-(trifluoromethoxy)phenyl)sulfonyl)-6-((tetrahydro-2H-pyran-4-yl)methyl)-2,6-diazaspiro[3.3]heptane]"
19,250 to 4000,"Cc1cc(C(F)(F)F)cnc1S(=O)(=O)N1CC2(CN(C3CCOCC3)C2)C1 [Example 221, 2-((3-methyl-5-(trifluoromethyl)pyridin-2-yl)sulfonyl)-6-(tetrahydro-2H-pyran-4-yl)-2,6-diazaspiro[3.3]heptane]"
